The text below walks through data of patent US11008572B2, “Methods and compositions for modulating splicing” (SKYHAWK THERAPEUTICS, INC., priority 2017, dated 2021).

Experiment [1] concerns FOXM1^A2 mRNA and FOXM1^BC mRNA. In words: Splicing assay (FOXM1), qPCR of isoform mRNAs. The format is cell-based. To be noted: for IC50: FoxM1 BC mRNA decrease (exon included), read-out: Splice IC50 (nM) FoxM1 BC mRNA decrease (exon included); for EC50: read-out: Splice EC50 (nM) FoxM1 A mRNA increase (exon excluded). Here is the method: Various cells lines were treated with the SMSMs described herein. RNA was then isolated, cDNA synthesized, qPCR performed and the levels of various mRNA targets of the SMSMs were determined. In some instances, RNA was isolated, cDNA synthesized, qPCR performed and the levels of mRNA isoforms in the various cell samples were determined.
On the day of the experiment, a 96-well plate was seeded with the cell lines of interest. The cells were diluted with full growth media to a concentration of 2.0×10^5 cells/mL and 100 μL of cells were added to each well (20,000 cells per well). The cells were treated with a compound immediately after plating.
The compounds were then added to the cell plate using the HP compound dispenser. In the initial experiment, a top concentration of 10 μM and an 8 point 4-fold dilution scheme was used. The stock compounds were made at a concentration of 5 mM, and the DMSO concentration was set to 0.2%. DMSO was used to normalize all the compound-containing wells and the untreated cells.
The treated cells were incubated at 37° C. in a 5% CO2 incubator for the desired amount of time. Plates were placed in a plastic bag with a wet paper towel to prevent evaporation.
RNA was isolated using the Cells to CT kit (ThermoFisher, AM1728). The cells were washed once with 100 μL cold PBS. 50 μL of lysis buffer was added to each well/tube (49.5 μL lysis buffer+0.5 μL DNase I per well/tube). The lysis reaction was mixed and incubated at room temperature for 5 minutes. 5 μL of stop solution was added directly into each cell lysis reaction and mixed by pipetting up and down 5 times. The plates/tubes were incubated at room temperature for 2 minutes then placed on ice if the cDNA synthesis was to be performed immediately. Otherwise, the plates/tubes were stored at −80° C. cDNA synthesis reactions were then performed. Reverse Transcription (RT) Master mix was prepared according to the table below.
40 μL RT master mix was added to PCR tubes or plate wells. 10 μL of RNA was added to each tube/well. The RT thermal cycler program was then run and tubes or plate wells were incubated at 37° C. for 1 hour, then at 95° C. for 5 minutes to deactivate the enzyme.
The qPCR was performed using a QuantStudio 6 instrument (ThermoFisher) and the following cycling conditions and according to the tables below. All samples and standards were analyzed in triplicate. Cycle 1: 2 minutes at 50° C. Cycle 2: 10 minutes at 95° C. Cycle 3 (repeat 40 times): 15 seconds at 95° C., 1 minute at 60° C.
The determined isoform 2and isoform 1quantities were then be used to determine the isoform 2: […] at the various compound concentrations. The PPIA quantities were used in the normalization to account of cell proliferation effects of the compounds.
The dilution necessary to make the top standard is calculated. A top concentration 200,000,000 copies/μL of the stock plasmid was prepared in TE buffer. A series of 10-fold dilutions, also in TE, were then made. A total of 5 μL of each standard was used in a qPCR well to generate samples containing 109 copies, […], 10^7copies, 10^6 copies, 10^5 copies, 10^4 copies, 10^3 copies, 10^2 copies, 10^1copies, and 0 copies.
An assay to measure the FOXM1^A2 mRNA and FOXM1^BC mRNA, or MADD^WT (isoform 4) mRNA and MADD^Ex16 (isoform 3) mRNA, or MAPTau^4R mRNA and MAPTau^3R mRNA simultaneously in cell wells was performed. The RNA values were measured relative to DMSO control and also included a housekeeping gene, PPIA to ensure data was consistent. The mRNA values were measured after 24 hours of incubation with the SMSM compounds.

Experiment [2] relates to A-673 cells. In words: Cell viability, crystal violet staining. In kind it is cell-based. To be noted: Homo sapiens, A673, cell viability, read-out: A-673 IC50 (nM) Cell viability. The method, boiled down: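 Readout is absorbance at 570 nm of crystal violet, taken up in 0.1 M sodium citrate in 50% ethanol after staining with 0.5% dye in 25% methanol. Plates held 5×10^3 cells per well, and compounds were added one day after seeding for 72 hours. Data are relative to vehicle, mean±SE.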

The IC50 is the concentration at which inhibition is half-maximal. One may read the EC50 as the concentration needed to bring the measured effect to its halfway point. `CN(c1cnc(-c2ccc(-c3cn[nH]c3)cc2O)nc1)C1CC(C)(C)NC(C)(C)C1` [compound 134, 2-(5-(methyl(2,2,6,6-tetramethylpiperidin-4-yl)amino)pyrimidin-2-yl)-5-(1H-pyrazol-4-yl)phenol]: in experiment [1], the IC50 is greater than 1000 nM and the EC50 was greater than 1000 nM. In experiment [2], the IC50 was greater than 1000 nM.
On to `CN(c1ccc(-c2ccc(-c3cn[nH]c3)cc2O)nc1)C1CC(C)(C)NC(C)(C)C1` [compound 135, 2-(5-(methyl(2,2,6,6-tetramethylpiperidin-4-yl)amino)pyridin-2-yl)-5-(1H-pyrazol-4-yl)phenol], for which the IC50 in experiment [1] and in experiment [2] was greater than 1000 nM each time. Further, the EC50 in experiment [1] was greater than 1000 nM.
As to `CN(c1cnc(-c2ccc(-c3cn[nH]c3)cc2O)cn1)C1CC(C)(C)NC(C)(C)C1` [compound 136, 2-(5-(methyl(2,2,6,6-tetramethylpiperidin-4-yl)amino)pyrazin-2-yl)-5-(1H-pyrazol-4-yl)phenol], in experiment [1], the IC50 was 251 to 500 nM and the EC50 lay in the range of 101 to 250 nM. Besides, the IC50 in experiment [2] was in the range of 501 to 1000 nM.
`CN(c1ccc(-c2ccc(-c3cn[nH]c3)cc2O)nn1)[C@H]1[C@@H]2CNC[C@@H]21` [compound 137, 2-(6-(((1R,5S,6s)-3-azabicyclo[3.1.0]hexan-6-yl)(methyl)amino)pyridazin-3-yl)-5-(1H-pyrazol-4-yl)phenol]: in experiment [1], the IC50 is greater than 1000 nM and the EC50 was greater than 1000 nM. Further, in experiment [2], the IC50 was greater than 1000 nM.
Turning to `CN(c1ccc(-c2ccc(-c3cn[nH]c3)cc2O)nn1)[C@H]1C[C@H]2CC[C@@H](C1)N2` [compound 139, 2-(6-(((1R,3r,5S)-8-azabicyclo[3.2.1]octan-3-yl)(methyl)amino)pyridazin-3-yl)-5-(1H-pyrazol-4-yl)phenol], in experiment [1], the IC50 is greater than 1000 nM and the EC50 was greater than 1000 nM. Moreover, the IC50 in experiment [2] was greater than 1000 nM.
Turning to `Oc1cc(-c2cn[nH]c2)ccc1-c1ccc(O[C@@H]2C[C@H]3CC[C@@H](C2)N3)nn1` [compound 140, 2-(6-(((1R,3s,5S)-8-azabicyclo[3.2.1]octan-3-yl)oxy)pyridazin-3-yl)-5-(1H-pyrazol-4-yl)phenol], in experiment [1], the IC50 was in the range of 10 to 100 nM and the EC50 was in the range of 10 to 100 nM. Besides, the IC50 in experiment [2] lay within 101 to 250 nM.
Take `Oc1cc(-c2cn[nH]c2)ccc1-c1ccc(O[C@H]2C[C@H]3CC[C@@H](C2)N3)nn1` [compound 141, 2-(6-(((1R,3r,5S)-8-azabicyclo[3.2.1]octan-3-yl)oxy)pyridazin-3-yl)-5-(1H-pyrazol-4-yl)phenol]: in experiment [1], the IC50 is greater than 1000 nM and the EC50 was greater than 1000 nM. Further, the IC50 in experiment [2] is greater than 1000 nM.
With `CN(c1ccc(-c2ccc(-c3cn[nH]c3)cc2O)nn1)[C@H]1C[C@H]2CNC[C@H]2C1` [compound 142, 2-(6-(methyl((3R,5r,6S)-octahydrocyclopenta[c]pyrrol-5-yl)amino)pyridazin-3-yl)-5-(1H-pyrazol-4-yl)phenol], in experiment [1], the IC50 fell in the range of 501 to 1000 nM and the EC50 was 251 to 500 nM. Moreover, the IC50 in experiment [2] is greater than 1000 nM.
`CN(c1ccc(-c2ccc(-c3cn[nH]c3)cc2O)nn1)[C@@H]1C[C@H]2CNC[C@H]2C1` [compound 143, 2-(6-(methyl((3R,5s,6S)-octahydrocyclopenta[c]pyrrol-5-yl)amino)pyridazin-3-yl)-5-(1H-pyrazol-4-yl)phenol]: in experiment [1], the IC50 was 501 to 1000 nM and the concentration giving a half-maximal response (EC50) was in the range of 251 to 500 nM. Further, in experiment [2], the IC50 was greater than 1000 nM.
Taken in the same sequence, the figures for `CN(c1ccc(-c2ccc(-c3cn[nH]c3)cc2O)nn1)[C@@H]1[C@@H]2CC[C@H]1CNC2` [compound 144, 2-(6-(((1R,5S,8s)-3-azabicyclo[3.2.1]octan-8-yl)(methyl)amino)pyridazin-3-yl)-5-(1H-pyrazol-4-yl)phenol] were greater than 1000 nM, greater than 1000 nM and 501 to 1000 nM.
Taken in the same sequence, the figures for `CN(c1ccc(-c2ccc(-c3cn[nH]c3)cc2O)nn1)[C@H]1[C@@H]2CC[C@H]1CNC2` [compound 145, 2-(6-(((1R,5S,8r)-3-azabicyclo[3.2.1]octan-8-yl)(methyl)amino)pyridazin-3-yl)-5-(1H-pyrazol-4-yl)phenol] were greater than 1000 nM, greater than 1000 nM and greater than 1000 nM.
On to `CN(c1ccc(-c2ccc(-c3cn[nH]c3)cc2O)nn1)[C@H]1C[C@H]2C[C@@H]1CN2` [compound 146, 2-(6-(((1R,4R,5S)-2-azabicyclo[2.2.1]heptan-5-yl)(methyl)amino)pyridazin-3-yl)-5-(1H-pyrazol-4-yl)phenol], for which, in experiment [1], the IC50 was 251 to 500 nM and the EC50 lay within 101 to 250 nM. The IC50 in experiment [2] is greater than 1000 nM.
Turning to `CN(c1ccc(-c2ccc(-c3cn[nH]c3)cc2O)nn1)[C@@H]1C[C@@H]2C[C@H]1CN2` [compound 147, 2-(6-(((1S,4S,5R)-2-azabicyclo[2.2.1]heptan-5-yl)(methyl)amino)pyridazin-3-yl)-5-(1H-pyrazol-4-yl)phenol], in experiment [1], the IC50 was 251 to 500 nM and the EC50 was 101 to 250 nM. The IC50 in experiment [2] was greater than 1000 nM.
On to `CN(c1ccc(-c2ccc(-c3cn[nH]c3)cc2O)nn1)[C@@H]1C[C@H]2C[C@@H]1CN2` [compound 148, 2-(6-(((1R,4R,5R)-2-azabicyclo[2.2.1]heptan-5-yl)(methyl)amino)pyridazin-3-yl)-5-(1H-pyrazol-4-yl)phenol], for which the IC50 in experiment [1] and in experiment [2] was greater than 1000 nM each time. Further, in experiment [1], the EC50 is greater than 1000 nM.
Regarding `CN(c1ccc(-c2ccc(-c3cn[nH]c3)cc2O)nn1)[C@H]1C[C@@H]2C[C@H]1CN2` [compound 149, 2-(6-(((1S,4S,5S)-2-azabicyclo[2.2.1]heptan-5-yl)(methyl)amino)pyridazin-3-yl)-5-(1H-pyrazol-4-yl)phenol], the IC50 in experiment [1] and in experiment [2] was greater than 1000 nM in each case. Further, the EC50 in experiment [1] is 251 to 500 nM.
Turning to `C[C@]12CC[C@](C)(C[C@H](Oc3ccc(-c4ccc(-c5cn[nH]c5)cc4O)nn3)C1)N2` [compound 153, 2-(6-(((1R,3r,5S)-1,5-dimethyl-8-azabicyclo[3.2.1]octan-3-yl)oxy)pyridazin-3-yl)-5-(1H-pyrazol-4-yl)phenol], in experiment [1], the IC50 was greater than 1000 nM and the EC50 was greater than 1000 nM. Also, in experiment [2], the IC50 was greater than 1000 nM.
`CN(c1ccc(-c2ccc(-c3cn[nH]c3)cc2O)nn1)[C@H]1C[C@H]2COC[C@@H](C1)N2` [compound 155, 2-(6-(((1R,5S,7s)-3-oxa-9-azabicyclo[3.3.1]nonan-7-yl)(methyl)amino)pyridazin-3-yl)-5-(1H-pyrazol-4-yl)phenol]: in experiment [1], the IC50 is greater than 1000 nM and the EC50 is greater than 1000 nM. The IC50 in experiment [2] is greater than 1000 nM.
For the compound `Oc1cc(-c2cn[nH]c2)ccc1-c1ccc(O[C@H]2C[C@H]3COC[C@@H](C2)N3)nn1` [compound 158, 2-(6-(((1R,5S,7s)-3-oxa-9-azabicyclo[3.3.1]nonan-7-yl)oxy)pyridazin-3-yl)-5-(1H-pyrazol-4-yl)phenol], in experiment [1], the IC50 was greater than 1000 nM and the EC50 was greater than 1000 nM. In experiment [2], the IC50 was greater than 1000 nM.
Take `Oc1cc(-c2cn[nH]c2)ccc1-c1ccc(O[C@@H]2C[C@H]3COC[C@@H](C2)N3)nn1` [compound 159, 2-(6-(((1R,5S,7r)-3-oxa-9-azabicyclo[3.3.1]nonan-7-yl)oxy)pyridazin-3-yl)-5-(1H-pyrazol-4-yl)phenol]: the IC50 in experiment [1] and in experiment [2] was 501 to 1000 nM each time. Besides, the EC50 in experiment [1] is 251 to 500 nM.
